Entries after “also recorded” stand apart in the source; their conditions may differ.
What was measured:
IL-2 [1] = experiment: Release of IL-2 from BALB/c splenocytes stimulated with ConA; conditions: ConA 1 μg/ml
hPBMC = experiment: Cell proliferation of hPBMC stimulated with anti-CD3 and anti-CD28; format: cell-based, human; conditions: four donors; for inhibition of proliferation of hPBMC stimulated via CD3 and CD28, in words: 0.78125 to 100 μM
Description: Anti-CD3 and anti-CD28 antibodies were used to assess the effect of quorum sensing signal molecules (PQS, OdDHL and OHHL) on T-cell proliferation and IL-2 secretion. Proliferation was assessed by the incorporation of [^3H]-thymidine into the DNA of PBMC and the release of cytokines in the culture supernatants was determined by ‘sandwich’ ELISA. Blood specimens were obtained with consent from four healthy human volunteers (aged between 20 and 50 years). Human PBMC were isolated from heparinised whole blood by buoyant density centrifugation over Histopaque 1077 (Sigma, Poole, UK) at 600 g for 20 minutes. PBMC harvested from the ‘buffy’ layers were washed twice with RPMI 1640 medium and resuspended in complete cell culture medium (CTCM) consisting of RPMI 1640 medium with 5% FCS, 2 mM L-glutamine, and 5×10^−5 M 2-mercaptoethanol. The quorum sensing molecules, of which stock solutions of 0.1 M were soluble in DMSO, were initially diluted into CTCM and then tested in triplicate wells at concentrations ranging from 0.78125 to 100 μM in 200 μl of CTCM, containing 100,000 hPBMC which were challenged with 100 ng/ml of mouse anti-human CD3 monoclonal antibody (clone UCHT1; BD Pharmingen, UK) and 5 μg/ml of mouse anti-human CD28 monoclonal antibody (clone CD28.2; BD Pharmingen, UK). hPBMC were incubated for 24 h at 37° C. in 5% CO2-air and 50 μl of culture supernatants were removed for the determination of IL-2 (see IV.II below). The cells were returned for a further 24 h culture, followed by pulsing with 0.25 μCi [^3H]-thymidine (Amersham) in 10 μl volume made up in RPMI 1640 medium. After a further incubation of 24 h, cells were harvested onto 96-well filter plates (Unifilter Filtermate Harvester™, Packard Bioscience Ltd, UK). Following the addition of 25 μl of scintillant (MicroScint-O™; Packard Bioscience Ltd. UK) to each well in the filter plates, the radioactivity in the filters was measured with a β-scintillation counter (TopCount™, Packard Bioscience Ltd, UK) according to manufacturer's specifications. […]

IL-2 [2] = experiment: IL-2 production from anti-CD3 and anti-CD28 stimulated hPBMC (sandwich ELISA); format: cell-based, human; conditions: four donors, 24 h supernatants
Description: Anti-CD3 and anti-CD28 antibodies were used to assess the effect of quorum sensing signal molecules (PQS, OdDHL and OHHL) on T-cell proliferation and IL-2 secretion. Proliferation was assessed by the incorporation of [^3H]-thymidine into the DNA of PBMC and the release of cytokines in the culture supernatants was determined by ‘sandwich’ ELISA. Blood specimens were obtained with consent from four healthy human volunteers (aged between 20 and 50 years). Human PBMC were isolated from heparinised whole blood by buoyant density centrifugation over Histopaque 1077 (Sigma, Poole, UK) at 600 g for 20 minutes. […] Following the addition of 25 μl of scintillant (MicroScint-O™; Packard Bioscience Ltd. UK) to each well in the filter plates, the radioactivity in the filters was measured with a β-scintillation counter (TopCount™, Packard Bioscience Ltd, UK) according to manufacturer's specifications. […]
When T cells in hPBMC are challenged with anti-CD3 and anti-CD28 antibodies, the cytokine IL-2 is released into the culture supernatants. The levels of cytokine produced in the culture supernatants after 24 h were determined in a ‘sandwich’ ELISA. […] Following four washes, the bound biotinylated antibody was detected with 50 μl of a 1:1,000 dilution of streptavidin-peroxidase (BD Pharmingen, UK). […]

| Compound | inhibition of release of IL-2 from BALB/c splenocytes, in words (IL-2 [1]) | inhibition of proliferation of hPBMC stimulated via CD3 and CD28, in words (hPBMC; listed as OdDHL) | inhibition of release of IL-2 from hPBMC stimulated via CD3 and CD28, in words (IL-2 [2]; listed as OdDHL) | potency relative to OdDHL in inhibition of CD3/CD28 stimulated hPBMC proliferation (hPBMC) | inhibition of proliferation of hPBMC stimulated via CD3 and CD28, in words (hPBMC) | inhibition of release of IL-2 from hPBMC stimulated via CD3 and CD28, in words (IL-2 [2]) |
| --- | --- | --- | --- | --- | --- | --- |
| CCCCCCCCCC(=O)CC(=O)N[C@H]1CCOC1=O [Example 6] | inhibit the release of IL-2 | inhibited, in a dose dependent manner; also recorded: inhibit the proliferation of stimulated hPBMC | inhibited in a dose dependent manner the release of IL-2; also recorded: inhibits the release of IL-2 |  |  |  |
| CCCCCCCc1[nH]c2ccccc2c(=O)c1O [PQS] | inhibit the release of IL-2 |  |  | consistently more potent than OdDHL | inhibited, in a dose dependent manner; also recorded: inhibit the proliferation of stimulated hPBMC | but not PQS, inhibits the release of IL-2 |

Reference: patent US7371779B2, “Synergistic compositions of N-acylhomoserine lactones and 4-quinolones” (The Secretary of State for Defense Science and Technology, priority 2001, dated 2008)
